Experiments:
Type in all cases: biochemical
c-KIT D816V kinase = target: T1, c-KIT D816V kinase (Homo sapiens, UniProt P10721, D816V); assay: c-KIT D816V kinase Assay; conditions: enzymatic assay, ATP 200 uM
T1 construct: residues T544-V976 with N-terminal GST fusion; purchased deCODE Biostructures
Description: (§1) In this assay, the oxidation of NADH (measured by decrease in absorbance at 340 nm) was continuously monitored spectrophotometrically. […] The inhibition reaction was started by mixing serial diluted test compound with the above reaction mixture. The absorption at 340 nm was monitored continuously for 5 hours at 30 °C on Synergy 2 plate reader (BioTech).
(§2) The protein construct was prepared by deCODE Biostructures using procedures known in the art. The construct contains residues T544-V976 of cKit, an N-terminal tag, a GST-fusion sequence and a TEV cleavage site. This construct is identical to Seq ID no.

c-KIT T670I kinase = target: T2, c-KIT T670I kinase (Homo sapiens, UniProt P10721, T670I); assay: c-KIT T670I kinase assay; conditions: enzymatic assay
T2 construct: The construct contains residues T544-V976 of cKit; GST (N); TEV cleavage site (internal); purchased deCODE Biostructures
Description: (§3) In this assay, the oxidation of NADH (measured by decrease in absorbance at 340 nm) was continuously monitored spectrophotometrically. […] The inhibition reaction was started by mixing serial diluted test compound with the above reaction mixture. The absorption at 340 nm was monitored continuously for 5 hours at 30 °C on Synergy 2 plate reader (BioTech). […] The protein construct was prepared by deCODE Biostructures using procedures known in the art. The construct contains […] of cKit, an N-terminal tag, a GST-fusion sequence and a TEV cleavage site. This construct is identical to Seq ID no. 1 except for the T670I mutation. [formula] [formula]

c-KIT kinase = c-KIT kinase (Homo sapiens, UniProt P10721); assay: c-KIT kinase Assay; parameters: cKIT residues T544-V976; GST (N); TEV cleavage site (internal); purchased deCODE Biostructures; conditions: enzymatic assay, ATP 200 µM; read-out: KIT (wt) IC50
Description: In this assay, the oxidation of NADH (measured by decrease in absorbance at 340 nm) was continuously monitored spectrophotometrically. […] The absorption at 340 nm was monitored continuously for 2 hours at 30 °C on Synergy 2 (BioTeK). The reaction rate was calculated using the 0 to 1 h time frame. Percent inhibition was obtained by comparison of reaction rate with that of a control (i.e. with no test compound). IC50 values were calculated from a series of percent inhibition values determined at a range of inhibitor concentrations using software routines as implemented in the GraphPad Prism software package. The protein construct was prepared by deCODE Biostructures using procedures known in the art. The construct contains […] of cKit, an N-terminal tag, a GST-fusion sequence and a TEV cleavage site. [formula]

c-KIT V654A kinase = target: T3, c-KIT V654A kinase (Homo sapiens, UniProt P10721, V654A); assay: c-KIT V654A Kinase Assay; conditions: enzymatic assay, ATP 200 µM
T3 construct: residues T544-V976 with N-terminal GST fusion; purchased deCODE Biostructures
Description: as §1, with “6” for “5”
as §2

c-KIT D816H kinase = target: T4, c-KIT D816H kinase (Homo sapiens, UniProt P10721, D816H); assay: c-KIT D816H Kinase Assay; conditions: enzymatic assay, ATP 200 µM
T4 construct: The construct contains residues T544-V976 of cKit; GST (N); TEV cleavage site (internal); purchased deCODE Biostructures
Description: as §3, with “6” for “5”, “no.” for “no. 1 except for the T670I mutation. [formula] [formula]”

T4 sequence (P10721 544-976 D816H): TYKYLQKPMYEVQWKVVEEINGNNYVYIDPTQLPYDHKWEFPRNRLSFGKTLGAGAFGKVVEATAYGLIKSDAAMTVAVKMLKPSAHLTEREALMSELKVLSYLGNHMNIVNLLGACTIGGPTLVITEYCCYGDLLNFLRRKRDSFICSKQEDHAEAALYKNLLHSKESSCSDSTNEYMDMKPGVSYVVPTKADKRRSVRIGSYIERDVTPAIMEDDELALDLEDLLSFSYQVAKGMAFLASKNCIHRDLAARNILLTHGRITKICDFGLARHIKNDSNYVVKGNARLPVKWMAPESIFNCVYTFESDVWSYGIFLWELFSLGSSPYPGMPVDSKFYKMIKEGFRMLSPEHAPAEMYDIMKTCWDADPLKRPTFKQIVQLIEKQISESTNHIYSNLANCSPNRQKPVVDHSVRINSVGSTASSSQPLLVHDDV
T3 sequence (P10721 544-976 V654A): as the sequence (P10721 544-976 D816H) above, with V111A, H273D counted along it
Chain of c-KIT kinase (P10721 544-976): as the sequence (P10721 544-976 D816H) above, with H273D counted along it
T1 sequence (P10721 544-976 D816V): as the sequence (P10721 544-976 D816H) above, with H273V counted along it
T2 sequence (P10721 544-976 T670I): as the sequence (P10721 544-976 D816H) above, with T127I, H273D counted along it

Structure (SMILES)	IC50 (c-KIT D816V kinase)	IC50 (c-KIT T670I kinase)	IC50 (c-KIT kinase)	IC50 (c-KIT V654A kinase)	IC50 (c-KIT D816H kinase)
CCn1c(=O)c(-c2cc(NC(=O)Nc3ccccc3)c(F)cc2Cl)cc2cnc(N[C@@H](C)COC)cc21 [Example 43, (S)-1-(4-chloro-5-(1-ethyl-7-(1-methoxypropan-2-ylamino)-2-oxo-1,2-dihydro-1,6-naphthyridin-3-yl)-2-fluorophenyl)-3-phenylurea]	0.1 to 1 µM	0.1 to 1 µM	0.01 to 0.1 µM		
CNc1cc2c(cn1)cc(-c1cc(NC(=O)Nc3cccc(C#N)c3)ccc1Cl)c(=O)n2C [Example 11, 1-(4-chloro-3-(1-methyl-7-(methylamino)-2-oxo-1,2-dihydro-1,6-naphthyridin-3-yl)phenyl)-3-(3-cyanophenyl)urea]	> 1 µM				
CCn1c(=O)c(-c2cc(NC(=O)Nc3ccccc3)c(F)cc2Br)cc2cnc(NC(=O)CC#N)cc21 [Example 64, N-(3-(2-bromo-4-fluoro-5-(3-phenylureido)phenyl)-1-ethyl-2-oxo-1,2-dihydro-1,6-naphthyridin-7-yl)-2-cyanoacetamide]	0.1 to 1 µM	0.1 to 1 µM	0.01 to 0.1 µM		
CCn1c(=O)c(-c2cc(NC(=O)Nc3cc(C)cc(F)c3)c(F)cc2Cl)cc2cnc(NC)cc21 [Example 72, 1-(4-chloro-5-(1-ethyl-7-(methylamino)-2-oxo-1,2-dihydro-1,6-naphthyridin-3-yl)-2-fluorophenyl)-3-(3-fluoro-5-methylphenyl)urea]	0.01 to 0.1 µM	< 0.01 µM	< 0.01 µM	0.1 to 1 µM	
CCn1c(=O)c(-c2cc(NC(=O)Nc3cc(F)cc(Cl)c3)c(F)cc2Cl)cc2cnc(NC)cc21 [Example 71, 1-(4-chloro-5-(1-ethyl-7-(methylamino)-2-oxo-1,2-dihydro-1,6-naphthyridin-3-yl)-2-fluorophenyl)-3-(3-chloro-5-fluorophenyl)urea]	0.1 to 1 µM	0.01 to 0.1 µM	0.01 to 0.1 µM	0.01 to 0.1 µM	
CCn1c(=O)c(-c2cc(NC(=O)Nc3cc(F)cc(Cl)c3)c(F)cc2C)cc2cnc(NC)cc21 [Example 69, 1-(3-chloro-5-fluorophenyl)-3-(5-(1-ethyl-7-(methylamino)-2-oxo-1,2-dihydro-1,6-naphthyridin-3-yl)-2-fluoro-4-methylphenyl)urea]	0.1 to 1 µM	0.01 to 0.1 µM	0.01 to 0.1 µM	0.01 to 0.1 µM	
CCn1c(=O)c(-c2cc(NC(=O)Nc3ccccc3)c(F)cc2Cl)cc2cnc(NC(=O)CC#N)cc21 [Example 65, N-(3-(2-chloro-4-fluoro-5-(3-phenylureido)phenyl)-1-ethyl-2-oxo-1,2-dihydro-1,6-naphthyridin-7-yl)-2-cyanoacetamide]	0.01 to 0.1 µM	0.01 to 0.1 µM	< 0.01 µM		
CCn1c(=O)c(-c2cc(NC(=O)Nc3ccccc3)c(F)cc2Cl)cc2cnc(NC(=O)COC)cc21 [Example 74, N-(3-(2-chloro-4-fluoro-5-(3-phenylureido)phenyl)-1-ethyl-2-oxo-1,2-dihydro-1,6-naphthyridin-7-yl)-2-methoxyacetamide]	< 0.01 µM	0.01 to 0.1 µM	< 0.01 µM		
CNc1cc2c(cn1)cc(-c1cc(NC(=O)Nc3ccccc3)c(F)cc1Br)c(=O)n2C [Example 56, 1-(4-bromo-2-fluoro-5-(1-methyl-7-(methylamino)-2-oxo-1,2-dihydro-1,6-naphthyridin-3-yl)phenyl)-3-phenylurea]	0.01 to 0.1 µM	0.1 to 1 µM	< 0.01 µM		
CCn1c(=O)c(-c2cc(NC(=O)Nc3ccccc3)c(F)cc2Cl)cc2cnc(NCCN(C)C)cc21 [Example 29, 1-(4-chloro-5-(7-(2-(dimethylamino)ethylamino)-1-ethyl-2-oxo-1,2-dihydro-1,6-naphthyridin-3-yl)-2-fluorophenyl)-3-phenylurea]	0.1 to 1 µM	0.1 to 1 µM	0.01 to 0.1 µM		
CCn1c(=O)c(-c2cc(NC(=O)Nc3cc(F)ccc3F)c(F)cc2F)cc2cnc(NC)cc21 [Example 62, 1-(2,5-difluorophenyl)-3-(5-(1-ethyl-7-(methylamino)-2-oxo-1,2-dihydro-1,6-naphthyridin-3-yl)-2,4-difluorophenyl)urea]	0.1 to 1 µM	< 0.01 µM	< 0.01 µM		

The next lines start with the values.

IC50 (c-KIT D816V kinase)	IC50 (c-KIT T670I kinase)	IC50 (c-KIT kinase)	IC50 (c-KIT V654A kinase)	IC50 (c-KIT D816H kinase)	Structure (SMILES)
0.1 to 1 µM	0.01 to 0.1 µM	0.01 to 0.1 µM	0.1 to 1 µM	0.01 to 0.1 µM	CCn1c(=O)c(-c2cc(NC(=O)Nc3ccc(F)c(CN4CCN(C)CC4)c3)c(F)cc2C)cc2cnc(NC)cc21 [Example 89, 1-(5-(1-ethyl-7-(methylamino)-2-oxo-1,2-dihydro-1,6-naphthyridin-3-yl)-2-fluoro-4-methylphenyl)-3-(4-fluoro-3-((4-methylpiperazin-1-yl)methyl)phenyl)urea]
0.1 to 1 µM	0.1 to 1 µM	< 0.01 µM			CCn1c(=O)c(-c2cc(NC(=O)Nc3cccc(CN4CCN(C)CC4)c3)c(F)cc2Br)cc2cnc(NC)cc21 [Example 83, 1-(4-bromo-5-(1-ethyl-7-(methylamino)-2-oxo-1,2-dihydro-1,6-naphthyridin-3-yl)-2-fluorophenyl)-3-(3-((4-methylpiperazin-1-yl)methyl)phenyl)urea]
0.1 to 1 µM	> 1 µM	0.01 to 0.1 µM			CCn1c(=O)c(-c2cc(NC(=O)Nc3ccccc3)c(F)cc2I)cc2cnc(NC)cc21 [Example 114, 1-(5-(1-ethyl-7-(methylamino)-2-oxo-1,2-dihydro-1,6-naphthyridin-3-yl)-2-fluoro-4-iodophenyl)-3-phenylurea]
> 1 µM	0.01 to 0.1 µM	< 0.01 µM		0.01 to 0.1 µM	CCn1c(=O)c(-c2cc(NC(=O)Nc3ccc(F)c(CN4CCN(C)CC4)c3)c(F)cc2F)cc2cnc(NC)cc21 [Example 90, 1-(5-(1-ethyl-7-(methylamino)-2-oxo-1,2-dihydro-1,6-naphthyridin-3-yl)-2,4-difluorophenyl)-3-(4-fluoro-3-((4-methylpiperazin-1-yl)methyl)phenyl)urea]
0.01 to 0.1 µM	0.01 to 0.1 µM	< 0.01 µM		< 0.01 µM	CCn1c(=O)c(-c2cc(NC(=O)Nc3ccccc3)c(F)cc2C)cc2cnc(NC(C)=O)cc21 [Example 80, N-(1-ethyl-3-(4-fluoro-2-methyl-5-(3-phenylureido)phenyl)-2-oxo-1,2-dihydro-1,6-naphthyridin-7-yl)acetamide]
0.01 to 0.1 µM	< 0.01 µM	< 0.01 µM		< 0.01 µM	CCn1c(=O)c(-c2cc(NC(=O)Nc3ccccc3)c(F)cc2F)cc2cnc(NC(=O)N(C)C)cc21 [Example 112, 3-(3-(2,4-difluoro-5-(3-phenylureido)phenyl)-1-ethyl-2-oxo-1,2-dihydro-1,6-naphthyridin-7-yl)-1,1-dimethylurea]
0.01 to 0.1 µM	0.01 to 0.1 µM	< 0.01 µM			CCn1c(=O)c(-c2cc(NC(=O)Nc3cccc(F)c3)c(F)cc2C)cc2cnc(NC(C)=O)cc21 [Example 78, N-(1-ethyl-3-(4-fluoro-5-(3-(3-fluorophenyl)ureido)-2-methylphenyl)-2-oxo-1,2-dihydro-1,6-naphthyridin-7-yl)acetamide]
0.1 to 1 µM	0.1 to 1 µM	0.01 to 0.1 µM			CCn1c(=O)c(-c2cc(NC(=O)Nc3cccc(CN4CCN(C)CC4)c3)c(F)cc2C)cc2cnc(NC)cc21 [Example 82, 1-(5-(1-ethyl-7-(methylamino)-2-oxo-1,2-dihydro-1,6-naphthyridin-3-yl)-2-fluoro-4-methylphenyl)-3-(3-((4-methylpiperazin-1-yl)methyl)phenyl)urea]
